One experiment deals with FADD−/− Jurkat cells. The experiment is described as follows: Inhibition of TNF-induced programmed necrosis of FADD deficient Jurkat cells (Cell Titer-Glo viability). In kind it is cell-based. An excerpt: (§1) The adopted biological assay protocol was: the effect of compounds on programmed necroptosis of TNF-induced FADD (Fas-Associated Death Domain) deficient Jurkat cells and L929 cells.
(§2) In order to verify the inhibitory effect of the compounds of the present invention on programmed cell necrosis at the cellular level, cell types that is closely related to the RIP1 pathway, namely FADD deficient Jurkat cells (human peripheral blood leukemia T cell strain) and L929 cells, were selected. Two different stimulation methods were used: tumor necrosis factor (TNFα) was used alone, or TNFα was used in combination with mitochondria-derived cysteine aspartate activator (SMAC) SM164. Cells viability was calculated by detecting chemiluminescence values, thereby obtaining the biological activity of the compound on the inhibition of programmed cell necrosis.
(§3) Methods: FADD deficient Jurkat cells: FADD deficient Jurkat cells (human peripheral blood leukemia T cell line) were cultured in vitro. After growing to the logarithmic growth phase, the cells were collected, centrifuged at 1000 rpm for 5 min, the supernatant was discarded, and the cell concentration was adjusted to 2.5×10^5/mL. Cells were seeded into 384-well plates, 40 μl per well. 5 μL of SM164 (50 nM) diluted in cell culture medium and 5 μL of each compound were added to the corresponding wells. After pretreatment at 37° C. for 1 h, 5 μL of TNFα (50 ng/mL) diluted in cell culture medium was added to each well of the stimulation group, and 5 μL of the culture medium was added to the control group. The plate was cultured in a cell incubator (37° C., 5% CO2) for 14 h, and […] of Cell Titer-Glo solution was added to each well, then incubated for 30 min at room temperature, and intracellular ATP level was measured by detecting luminescence. The unstimulated DMSO control wells were taken as 100% cell viability. L929 cells: The L929 cells (mouse fibroblasts) were cultured in vitro, digested and diluted to 6.25×10^4/ml, and the cells were seeded into 384-well plates, 40 μl per well. The plate was placed in a cell incubator (37° C., 5% CO2) for 12 hours. 5 μL of SM164 (500 nM) diluted in cell culture medium and 5 μL of each compound were added to the corresponding wells. After pretreatment at 37° C. for 1 h, 5 μL of TNFα (500 ng/mL) diluted in cell culture medium was added to each well of the stimulation group, and 5 μL of the culture medium was added to the control group. After the plate was cultured for 14 h in a cell incubator (37° C., 5% CO2), 15 μl of Cell Titer-Glo solution was added to each well. The plate was incubated at room temperature for 30 min, and intracellular ATP level was measured by detecting luminescence. The unstimulated DMSO control wells were taken as 100% cell viability. EC50 values of the compounds were calculated using Prism Graphpad statistical software.
A general note: Cellular ATP, detected with luciferase, serves as a proxy for viable cell number.

A further experiment deals with L929 cells. Nature of the experiment: Inhibition of TNF-induced programmed necrosis of L929 cells (Cell Titer-Glo viability). The format is cell-based, mouse.
Description: as §1, §2, §3

Where [1] appears, read: Homo sapiens, Jurkat, 14 h, FADD−/− Jurkat cells, stimulated with TNFα + SM164, read-out: EC50 (μM) FADD−/− Jurkat cells (human) TNFα + SM164.
The mark [2] stands for this setting: Homo sapiens, Jurkat, FADD−/− Jurkat cells, stimulated with TNFα alone, read-out: EC50 (μM) FADD−/− Jurkat cells (human) TNFα.
Setting [3] is: Mus musculus, L929, L929 cells, stimulated with TNFα + SM164, read-out: EC50 (μM) L929 cells (mouse) TNFα + SM164.
Setting [4] is: Mus musculus, L929, L929 cells, stimulated with TNFα alone, read-out: EC50 (μM) L929 cells (mouse) TNFα.
Setting [5] is: FADD−/− Jurkat cells, stimulated with TNFα + SM164, read-out: EC50 (μM) FADD−/− Jurkat cells (human) TNFα + SM164.
Where [6] appears, read: FADD−/− Jurkat cells, stimulated with TNFα alone, read-out: EC50 (μM) FADD−/− Jurkat cells (human) TNFα.

Read-outs that look alike come from different tables or passages of the source.

Consider `COc1cnc2c(c1)ncn2-c1ccc(CNC(=O)c2nnn(C)c2Cc2ccccc2)cc1` [ET-0934], for which the EC50 was 15.5 nM in the experiment with FADD−/− Jurkat cells (setting [1]), 0.489 nM with FADD−/− Jurkat cells (setting [2]), 558 nM in the experiment on L929 cells (setting [3]) and 16.6 nM with L929 cells (setting [4]).

With `COc1ccc2ncn(-c3ccc(CNC(=O)c4nnn(C)c4Cc4ccccc4)cc3)c2n1` [ET-0935], the EC50 with FADD−/− Jurkat cells (setting [1]) was 0.244 nM; with FADD−/− Jurkat cells (setting [2]), 0.0235 nM; with L929 cells (setting [3]), 0.001 nM; with L929 cells (setting [4]), 0.001 nM. Also, the “activity of inhibition of programmed necrosis compared with GSK2982772” value in the experiment with FADD−/− Jurkat cells (human FADD-deficient Jurkat cells, TNFα alone or in combination with SM164) is on record as “stronger activity”.

As for `CNC(=O)c1ccc2c(c1)ncn2-c1ccc(CC(=O)NCc2c[nH]c3ccccc23)cc1` [QY-5-35, 1-(4-(2-(((1H-indole-3-yl)methyl)amino)-2-oxoethyl)phenyl)-N-methyl-1H-benzo[d]imidazol-5-formamide], the EC50 with FADD−/− Jurkat cells (setting [1]) is above 10000 nM; in the experiment on FADD−/− Jurkat cells (setting [2]), 2490 nM; with L929 cells (setting [3]), above 10000 nM; with L929 cells (setting [4]) it was above 10000 nM.

On to `CNC(=O)c1ccc2c(c1)ncn2-c1ccc(CC(=O)N(C)Cc2cc(F)cc(F)c2F)cc1` [QY-5-40, N-methyl-1-(4-(2-(methyl(2,3,5-trifluorobenzyl)amino)-2-oxoethyl)phenyl)-1H-benzo[d]imidazol-5-formamide], for which the EC50 with FADD−/− Jurkat cells (setting [1]) was above 10000 nM; in the experiment on FADD−/− Jurkat cells (setting [2]) it was 2500 nM; with L929 cells (setting [3]) it was above 10000 nM; in the experiment on L929 cells (setting [4]), 5000 nM.

With `CNC(=O)c1ccc2c(c1)ncn2-c1ccc(CC(=O)N(O)Cc2ccccc2)cc1` [QY-5-62, 1-(4-(2-(benzyl(hydroxy)amino)-2-oxoethyl)phenyl)-N-methyl-1H-benzo[d]imidazol-5-formamide], the EC50 was 98 nM with FADD−/− Jurkat cells (Homo sapiens, Jurkat, 14 h, read-out: EC50 (μM) FADD−/− Jurkat cells (human) TNFα + SM164); 4.98 nM with FADD−/− Jurkat cells (Homo sapiens, Jurkat, read-out: EC50 (μM) FADD−/− Jurkat cells (human) TNFα); above 10000 nM in the experiment with L929 cells (setting [3]); 3800 nM with L929 cells (setting [4]).

With `CNC(=O)c1ccc2c(c1)ncn2-c1ccc(NC(=O)c2nocc2Cc2ccccc2)cc1` [QY-6-15], the EC50 was above 10000 nM with FADD−/− Jurkat cells (setting [1]), 1370 nM in the experiment on FADD−/− Jurkat cells (setting [2]), above 10000 nM in the experiment with L929 cells (setting [3]) and above 10000 nM in the experiment with L929 cells (setting [4]).

`CNC(=O)c1ccc2c(c1)ncn2-c1ccc(CNC(=O)c2cc(Cc3ccccc3)n(C)n2)cc1` [QY-7-2B, 1-(4-((5-benzyl-1-methyl-1H-pyrazole-3-carboxamido)methyl)phenyl)-N-methyl-1H-benzo[d]imidazol-5-carboxamide]: the EC50 came out at 43.9 nM with FADD−/− Jurkat cells (setting [1]), 5.12 nM in the experiment on FADD−/− Jurkat cells (setting [2]), 2020 nM with L929 cells (setting [3]) and 312 nM in the experiment with L929 cells (setting [4]).

On to `CNC(=O)c1ccc2c(c1)ncn2-c1ccc(CNC(=O)c2nnc(Cc3ccccc3)o2)cc1` [QY-7-32, 5-Benzyl-N-(4-(5-(methylcarbamoyl)-1H-benzo[d]imidazol-1-yl)benzyl)-1,3,4-oxadiazol-2-carboxamide], for which the EC50 was 1520 nM with FADD−/− Jurkat cells (setting [1]), 185 nM in the experiment with FADD−/− Jurkat cells (setting [2]), above 10000 nM in the experiment with L929 cells (setting [3]) and above 10000 nM in the experiment on L929 cells (setting [4]).

Turning to `CNC(=O)c1ccc2c(c1)ncn2-c1ccc(CC(=O)N2CCCC2c2ccccc2)cc1` (stereo not shown) [QY-7-65, N-methyl-1-(4-(2-oxo-2-(2-phenylpyrrolidin-1-yl)ethyl)phenyl)-1H-benzo[d]imidazol-5-carboxamide], the EC50 in the experiment with FADD−/− Jurkat cells (setting [1]), in the experiment with FADD−/− Jurkat cells (setting [2]), in the experiment on L929 cells (setting [3]) and with L929 cells (setting [4]) was above 10000 nM each time.

Regarding `Nc1ncnc2c1ccn2-c1ccc(CNC(=O)c2ncc(Cc3ccccc3)o2)cc1` [QY-8-30, N-(4-(4-amino-7H-pyrrolo[2,3-d]pyrimidine-7-yl)benzyl)-5-benzyloxazol-2-carboxamide], the EC50 was 13 nM in the experiment with FADD−/− Jurkat cells (setting [1]), 11.2 nM in the experiment on FADD−/− Jurkat cells (setting [2]), 6300 nM with L929 cells (setting [3]) and 829 nM in the experiment on L929 cells (setting [4]).

Consider `Cn1nc(C(=O)NCc2ccc(-n3cnc4c(N)ncnc43)cc2)cc1Cc1ccccc1` [QY-8-31], for which the EC50 is 7400 nM in the experiment with FADD−/− Jurkat cells (setting [5]); 1300 nM with FADD−/− Jurkat cells (setting [6]); above 10000 nM in the experiment on L929 cells (L929 cells, stimulated with TNFα + SM164, read-out: EC50 (μM) L929 cells (mouse) TNFα + SM164); above 10000 nM in the experiment on L929 cells (L929 cells, stimulated with TNFα alone, read-out: EC50 (μM) L929 cells (mouse) TNFα).

For the compound `CNC(=O)c1ccc2c(c1)ncn2-c1ccc(CC(=O)NC(C)(C)C(=O)N2CCCC2c2ccc(C)cc2)cc1` (stereo not shown) [QY-8-42], the EC50 with FADD−/− Jurkat cells (setting [1]), in the experiment with FADD−/− Jurkat cells (setting [2]), with L929 cells (setting [3]) and with L929 cells (setting [4]) was above 10000 nM each time.

With `Nc1ncnc2c1ccn2-c1ccc(CNC(=O)c2cc(Cc3ccccc3)on2)cc1` [QY-8-48], the EC50 in the experiment with FADD−/− Jurkat cells (setting [1]) is above 10000 nM; with FADD−/− Jurkat cells (setting [2]) it was 972 nM; with L929 cells (setting [3]), above 10000 nM; with L929 cells (setting [4]) it was above 10000 nM.

As to `Nc1ncnc2c1ccn2-c1ccc(CNC(=O)c2nnn(Cc3ccccc3)n2)cc1` [QY-8-58, N-(4-(4-amino-7H-pyrrolo[2,3-d]pyrimidin-7-yl)benzyl)-2-benzyl-2H-tetrazol-5-carboxamide], the EC50 with FADD−/− Jurkat cells (setting [1]) is 577 nM; in the experiment with FADD−/− Jurkat cells (setting [2]) it was 196 nM; with L929 cells (setting [3]), above 10000 nM; with L929 cells (setting [4]), above 10000 nM.

As to `Nc1ncnc2c1ccn2-c1ccc(CNC(=O)c2n[nH]c(Cc3ccccc3)n2)cc1` [QY-8-60, N-(4-(4-amino-7H-pyrrolo[2,3-d]pyrimidine-7-yl)benzyl)-5-benzyl-1H-1,2,4-triazol-3-carboxamide], the EC50 with FADD−/− Jurkat cells (setting [1]), in the experiment with FADD−/− Jurkat cells (setting [2]), with L929 cells (setting [3]) and in the experiment with L929 cells (setting [4]) was above 10000 nM throughout.

Turning to `Nc1ncnc2c1ccn2-c1ccc(CNC(=O)Cc2cccc(OC(F)(F)F)c2)cc1` [QY-9-69, O—N-(4-(4-amino-7H-pyrrolo[2,3-d]pyrimidine-7-yl)benzyl)-2-(3-(trifluoromethoxy)phenyl)acetamide], the EC50 in the experiment with FADD−/− Jurkat cells (setting [1]) was above 10000 nM; in the experiment on FADD−/− Jurkat cells (setting [2]), above 10000 nM; with L929 cells (setting [3]), above 10000 nM; in the experiment on L929 cells (setting [4]), 567 nM.

For the compound `Nc1ncnc2c1ncn2-c1ccc(CNC(=O)Cc2cccc(OC(F)(F)F)c2)cc1` [QY-9-70], the EC50 was above 10000 nM with FADD−/− Jurkat cells (setting [1]), 2960 nM in the experiment with FADD−/− Jurkat cells (setting [2]), 6300 nM in the experiment on L929 cells (setting [3]) and 350 nM with L929 cells (setting [4]).

For `Nc1ncnc2c1ncn2-c1ccc(CNC(=O)c2n[nH]c3ncc(C(F)(F)C(F)(F)F)cc23)cc1` [QY-9-77, N-(4-(6-amino-9H-purin-9-yl)benzyl)-5-(perfluoroethyl)-1H-pyrazolo[3,4-b]pyridine-3-carboxamide], the EC50 in the experiment on FADD−/− Jurkat cells (setting [1]) amounted to 171 nM; in the experiment on FADD−/− Jurkat cells (setting [2]) it was 9.04 nM; in the experiment with L929 cells (setting [3]) it was 5000 nM; with L929 cells (setting [4]), 344 nM.

In the case of `Cn1nc(C(=O)NCc2ccc(-n3ccc4c(N)ncnc43)cc2)cc1Cc1ccccc1` [QY-10-21, N-(4-(4-amino-7H-pyrrolo[2,3-d]pyrimidin-7-yl)benzyl)-5-benzyl-1-methyl-1H-pyrazol-3-carboxamide], the EC50 with FADD−/− Jurkat cells (setting [1]) was 299 nM; in the experiment with FADD−/− Jurkat cells (setting [2]) it was 49 nM; in the experiment with L929 cells (setting [3]) it was above 10000 nM; in the experiment with L929 cells (setting [4]), above 10000 nM.

Take `CNC(=O)c1ccc2c(cnn2-c2ccc(CNC(=O)c3cnn(C)c3Cc3ccccc3)cc2)c1` [QY-11-104]: the values for the EC50 in the experiment on FADD−/− Jurkat cells (setting [1]) and with FADD−/− Jurkat cells (setting [2]) were 48.4 nM and 4.43 nM, respectively.

`COc1ccc2c(c1)ncn2-c1ccc(CNC(=O)c2cnn(C)c2Cc2ccccc2)cc1` [QY-12-4]: the EC50 in the experiment on FADD−/− Jurkat cells (setting [5]) is 128 nM; in the experiment with FADD−/− Jurkat cells (setting [6]) it was 17.6 nM.

Regarding `C[C@H](NC(=O)c1nnn(C)c1Cc1ccccc1)c1ccc(-n2cnc3c(N)ncnc32)cc1` [QY-13-50], the EC50 in the experiment with FADD−/− Jurkat cells (setting [1]) and in the experiment on FADD−/− Jurkat cells (setting [2]) was 0.001 nM throughout.

As for `Nc1ncnc2c1ncn2-c1ccc(CNC(=O)c2cncn2Cc2ccccc2)cc1` [ZSQ-21-14], the results for the EC50 in the experiment on FADD−/− Jurkat cells (setting [1]) and in the experiment with FADD−/− Jurkat cells (setting [2]) were above 10000 nM and 290 nM, respectively.

The record behind these values is US20230331707A1, “PROGRAMMED CELL NECROSIS INHIBITOR, PREPARATION METHOD THEREFOR, AND USE THEREOF” (Shanghai Institute of Organic Chemistry, Chinese Academy of …, priority 2020, published 2023).
